Assay results from EPA's ToxValDB 9.5 (doi:10.2903/j.efsa.2009.339r).

Columns and labels:
[1] = reproductive; oral; feed
[2] = system: Anas platyrhynchos
[3] = system: Apis mellifera; conditions: acute; duration: 48 hours; oral; unspecified; mortality
[4] = system: Bibionidae; conditions: chronic/long-term; duration: 28 days
[5] = system: Canidae; conditions: chronic; duration: 1 years; oral; Dog Other; clinical chemistry
[6] = system: Colinus virginianus
[7] = system: Daphnia magna; conditions: chronic/long-term; duration: 21 days; reproduction
[8] = system: Oncorhynchus mykiss
[9] = system: Rattus norvegicus; conditions: acute; oral; mortality
[10] = system: Tagia sp.; conditions: acute; mortality
[11] = system: Typhlodromus pyri; assay: LR50; higher = less toxic; conditions: acute; duration: 14 days; mortality

What does the source list for CCC(C)(C)C(=O)OC1=C(c2ccc(Cl)cc2Cl)C(=O)OC12CCCCC2 [Spirodiclofen]?
NOEC [1]: 6 mg/kg-day; NOEC ([2]; reproductive): 111 mg/kg-day; LC50 ([2]; short-term, oral, feed, mortality): > 2270 mg/kg-day; LD50 [3]: > 196 µg/piece; NOEC [4]: 0.032 mg/L; NOAEL [5]: 1.45 mg/kg-day; LC50 ([6]; acute, oral, diet, mortality): > 1060 mg/kg-day; LD50 ([6]; acute, oral, mortality): > 2000 mg/kg; NOEC ([6]; reproduction developmental): 51 mg/kg-day; NOEC [7]: 0.0111 mg/L; LC50 ([8]; acute, duration: 96 hours, mortality): > 0.0351 µg/mL; NOEC ([8]; chronic/long-term, duration: 97 days, time to hatch): 0.00195 mg/L; LD50 [9]: > 2500 mg/kg; LC50 [10]: > 1000 mg/kg; LR50 [11]: 2.4 g/ha
